Non-standard residues stand in square brackets, D forms with d. No end group written: not given here. d = 2'-deoxy (DNA); r = 2'-OH (RNA)
Key:
[1] = tested on: xenografts of human malignant ascites (ovarian carcinoma); test: In vivo antitumor activity in mice bearing xenografts of human malignant ascites; settings: intraperitoneal treatment max 8 times within 30 days; DOX 2.5 mg/kg, CIS 2.5 mg/kg
Procedure: All mice received cancer cells from the same patient. When the tumors reached a size of about 0.3 cm^3 (15-20 days after transplantation), mice were treated intraperitoneally with the following formulations: (1) Saline (untreated control); (2) Liposomes (Lip); (3) LHRH; (4) DOX; (5) Lip-DOX; (6) Lip-DOX-BCL2 ASO; (7) Lip-DOX-MDR1 ASO; (8) Lip-DOX-BCL2-MDR1 ASO; (9) LHRH-Lip-DOX-BCL2-MDR1 ASO; (10) CIS; (11) Lip-CIS; (12) Lip-CIS-BCL2 ASO; (13) Lip-CIS-MDR1 ASO; (14) Lip-CIS-BCL2-MDR1 ASO; (15) LHRH-Lip-CIS-BCL2-MDR1 ASO; (16) DOX+CIS; (17) Lip-DOX+Lip-CIS; (18) Lip-DOX-BCL2 ASO+Lip-CIS-BCL2 ASO; (19) Lip-DOX-MDR1 ASO+Lip-CIS-MDR1 ASO; (20) Lip-DOX-BCL2-MDR1 ASO+Lip-CIS-BCL2-MDR1 ASO; (21) LHRH-Lip-DOX-BCL2-MDR1 ASO+LHRH-Lip-CIS-BCL2-MDR1 ASO. […] The animals were treated maximum 8 times over four weeks and the development of primary tumor and intraperitoneal metastases was monitored by fluorescent IVIS (Xenogen, Alameda, Calif.) and ultrasound Vevo 2100 (VisualSonics, Toronto, Canada) imaging systems. To initiate bioluminescence of cancer cells, 1× substrate/reaction buffer (Clontech, Mountain View, Calif.) was diluted 1:20 with DPBS and 100 μl of the solution was injected into each mouse. The bioluminescent images were taken 10 minutes after the injection of the substrate. The size of primary tumor was measured by a caliper. At the end of the experiments, tumors and ascites were excised and their mass was measured. Animal weight was evaluated every day during the treatment period. Changes in tumor size were used as an overall marker for antitumor activity.

MDR1 mRNA = test: MDR1 gene expression in subcutaneous tumors, quantitative RT-PCR; assay type: in vivo, human; settings: treated 8 times within 30 days, vs untreated control
Procedure: (§1) The expression of MDR1 and BCL2 genes was measured using a quantitative RT-PCR as previously described (Pakunlu et al. (2006) J. Control. Rel., 114:153-162). Gene expression was calculated as a percent of internal standard (β2-microglobulin). To identify the presence of BCL2, P-glycoprotein and Caspase 3 (CASP3) proteins, the immunohistochemical staining of paraffin-embedded tumor tissue slides was carried out. For BCL2 and CASP3, slides were deparaffinized in xylene for 5 min followed by progressive rehydration in 100%, 95%, 70% and 50% ethanol for 3 minutes during each step. Endogenous peroxidase activity was blocked by incubating slides in 3% H2O2 solution in methanol at room temperature for 10 minutes and washing in 300 ml PBS two times for 5 minutes. Slides then were stained with anti-mouse monoclonal antibodies for BCL2 conjugated with FITC (1:200 dilution; BioLegend, catalog number 633502, San Diego, Calif.) and for CASP3 conjugated with Alexa Flour 647 (1:200 dilution; BioLegend, catalog number 622702, San Diego, Calif.) by incubating for an hour, washed in 300 ml PBS two times for 5 minutes and analyzed by fluorescence microscopy. To identify the expression of P-glycoprotein, after deparaffinization and rehydration, the slides were stained using Vector® M.O.M. Immunodetection Kit (Vector Laboratories, Inc., Burlingame, Calif.). Mouse monoclonal antibody to P-glycoprotein (ab3366, 1:40 dilution) obtained from Abcam (Cambridge, Mass.) was used as primary antibody for the detection of P-glycoprotein. Biotinylated anti-mouse IgG Reagent (1:250 dilution, Vector Laboratories, Inc., Burlingame, Calif.) and HSP-Streptavidine Detection System (1:500 dilution, Vector Laboratories, Inc., Burlingame, Calif.) in combination with DAB substrate kit (Vector Laboratories, Inc., Burlingame, Calif.) for peroxidase were used for visualization. After staining, the slides were examined by light microscopy and photographed.

BCL2 mRNA = test: BCL2 gene expression in subcutaneous tumors, quantitative RT-PCR; assay type: in vivo, human; settings: treated 8 times within 30 days, vs untreated control
Procedure: as §1

[2] = tested on: tumor and malignant ascites; test: Apoptosis induction in tumor and malignant ascites (cell death detection ELISA); assay type: in vivo, mice; settings: histone-complexed DNA fragments
Procedure: (§2) Induction of apoptosis was analyzed by the measurement of the enrichment of histone-associated DNA fragments (mono- and oligo-nucleosomes) in homogenates of the tumor, malignant ascites and other organs (liver, kidney, lung, heart and brain) using anti-histone and anti-DNA antibodies by a cell death detection ELISA Plus kit (Roche, Nutley, N.J.) as previously described (Pakunlu et al. (2004) Cancer Res., 64:6214-6224; Dharap et al. (2005) Proc. Natl. Acad. Sci., 102:12962-12967; Dharap et al. (2003) Pharm. Res., 20:889-896).

[3] = tested on: healthy organs (liver, kidney, spleen, heart, lung and brain); test: Apoptosis induction in healthy organs (cell death detection ELISA); assay type: in vivo, mice
Procedure: as §2

[4] = tested on: subcutaneous tumor xenografts of human A549 cancer cells; test: Antitumor activity in subcutaneous A549 xenografts; settings: intratumoral 3 times within 10 days
Procedure: NCR nude mice (female, 6 weeks, 20 g) were purchased from Taconic Farms, Inc. (Germantown, N.Y.). […] Briefly, A549 human cancer cells transfected with luciferase (5×10^6) were subcutaneously transplanted into the flanks of female athymic nu/nu mice. According to the approved institutional animal use protocol, the tumors were measured by a caliper every other day and their volumes were calculated as d^2×D/2 where d and D are the shortest and longest diameter of the tumor in mm, respectively. When the tumor reached a mean size of 50 mm^3, mice were divided into seven groups and injected intratumorally 3 times within 10 days with 150 μL of the following formulations: (1) saline (control); (2) free non-bound LHRH; (3) free non-bound siRNA; (4) free non-bound CIS; (5) Mixture of CIS and SPIO-PPI G5; (6) Mixture of CIS and SPIO-PPI G5-siRNA; and (7) Mixture of CIS and SPIO-PPI G5-siRNA-PEG-LHRH complexes. The concentrations of CIS and siRNA in the formulations were 2.5 mg/kg and 30 μM, respectively. Changes in tumor size were monitored by real-time bioluminescence in anesthetized animals by IVIS imaging system (Xenogen Bioscience, Cranbury, N.J.).

BCL2 gene = BCL2 gene expression, RT-PCR; assay type: cell-based, human; settings: A2780 cells, BCL2 siRNA 1 μM delivered by the named carrier, 24 hours
Procedure: Reverse transcription-polymerase chain reaction (RT-PCR) was used for the analysis of gene expression (Pakunlu et al. (2004) Cancer Res., 64:6214-6224). […] After 24 hours, total cellular RNA was isolated using an RNeasy kit (Qiagen, Valencia, Calif.). […] After synthesis, the reaction mixture was immediately subjected to polymerase chain reaction (PCR), which was carried out using […] System 2400 (Perkin-Elmer, Shelton, Conn.). β2-microglobulin (β2-m) was used as an internal standard. The following pairs of primers were used: BCL2: [NT] (sense; SEQ ID NO: 6), [NT] (antisense; SEQ ID NO: 7); β2-m (internal […] (sense; SEQ ID NO: 8), [NT] (antisense; SEQ ID NO: 9). PCR regimen was as follows: 94° C. for 5 minutes; 94° C. for 1 minute, 55° C. for 1 minute, and 72° C. for 1 minute for 41 cycles; and 60° C. for 10 minutes. PCR products were separated in 4% NuSieve 3:1 Reliant-agarose gels (Lonza, Basel, Switzerland) in 1× Tris-borate EDTA buffer [0.089 mol/L Tris-borate, 0.002 mol/L EDTA (pH 8.3); Research Organics Inc., Cleveland, Ohio] by submarine electrophoresis. The gels were stained with EtBr and digitally photographed.

Caspase 3 = test: Immunohistochemical staining of tumor tissue for Caspase 3; assay type: in vivo, human; settings: tumor tissue sections
Procedure: as §1, with “Mouse monoclonal antibody to P-glycoprotein (ab3366, 1:40 dilution) obtained from Abcam (Cambridge, Mass.) was used as primary antibody for the detection of P-glycoprotein. Biotinylated anti-mouse IgG Reagent (1:250 dilution, Vector Laboratories, Inc., Burlingame, Calif.) and HSP-Streptavidine Detection System (1:500 dilution, Vector Laboratories, Inc., Burlingame, Calif.) in combination with DAB substrate kit (Vector Laboratories, Inc., Burlingame, Calif.) for peroxidase were used for visualization. After staining, the slides were examined by light microscopy and photographed.” left out

[5] = Maximum tolerated dose from animal weight change; assay type: in vivo; settings: mice; estimated from animal weight change after injection of increasing doses

Compound | development and mass of intraperitoneal metastases and malignant ascites [1] | growth of primary subcutaneous tumor (volume) [1] | expression of MDR1 gene (MDR1 mRNA) | expression of BCL2 gene (BCL2 mRNA) | apoptosis induction in tumor and malignant ascites [2] | apoptosis induction in healthy organs [3] | tumor growth / antitumor activity [4] | expression of targeted BCL2 gene, from control value (BCL2 gene) | expression/activation of caspase 3 (Caspase 3) | maximum tolerated dose [5] [mg/kg] | decrease of tumor volume/growth compared with untreated control ([4]; last day of treatment, CIS 2.5 mg/kg, siRNA 30 μM) [%]
Lys6-des-Gly10-Pro9-ethylamide (Gln-His-Trp-Ser-Tyr-DLys-Leu-Arg-Pro-NH-Et; SEQ ID NO: 3) (QHWSY[dK]LRP-NHEt) [LHRH] | did not influence | did not influence | did not change significantly | did not change significantly | did not induce detectable levels of apoptosis | did not induce detectable levels of apoptosis | did not significantly influence the growth of the tumor | – | – | – | –
sense strand, 5′-CCU CGG GCU GUG CUC UUU U-dTdT-3′, SEQ ID NO: 10; antisense strand, 5′-AAA AGA GCA CAG CCC GAG G-dTdT-3′, SEQ ID NO: 11 (sense CCUCGGGCUGUGCUCUUUUTT; antisense AAAAGAGCACAGCCCGAGGTT; sugars from the 5' end r19 d2, backbone not given here) [naked non-specific siRNA, non-specific siRNA used as a negative control] | – | – | – | – | – | – | – | did not influenced | – | – | –
N.N.[Cl][Pt][Cl] [CIS, cisplatin] | more effective in limiting the growth of both primary tumor and malignant ascites when compared to corresponding DOX formulations | more effective in limiting the growth of both primary tumor and malignant ascites when compared to corresponding DOX formulations | statistically significant overexpression | statistically significant overexpression | induced apoptosis | – | – | – | activated caspase 3 | 2.5 | 36.2
COc1cccc2c1C(=O)c1c(O)c3c(c(O)c1C2=O)C[C@@](O)(C(=O)CO)C[C@@H]3O[C@H]1C[C@H](N)[C@H](O)[C@H](C)O1 [DOX, doxorubicin] | – | slowed down the growth | statistically significant overexpression | statistically significant overexpression | induced apoptosis | – | – | – | activated caspase 3 | 2.5 | –
